target: Ras-related protein Rab-7a (Canis lupus familiaris, UniProt P18067); test: Rab7 wildtype GTP binding inhibitors, SAR follow-up, biochemical, dog Rab7, bead multiplex flow cytometry, Bodipy-FL-GTP, pyrazoline series (AID 2041); conditions: not given
Sequence (P18067 whole entry): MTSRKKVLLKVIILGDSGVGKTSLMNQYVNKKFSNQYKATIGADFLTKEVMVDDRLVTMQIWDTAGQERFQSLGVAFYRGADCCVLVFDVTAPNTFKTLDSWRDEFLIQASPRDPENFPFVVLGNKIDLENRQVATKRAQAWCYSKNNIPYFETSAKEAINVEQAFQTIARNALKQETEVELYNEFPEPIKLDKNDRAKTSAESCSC

| SMILES | EC50 |
| --- | --- |
| O=[N+]([O-])c1ccc([N+]2=N[C-](c3ccccc3)CC2c2ccccc2)cc1 (stereo unspecified) | > 30 µM |
| COc1ccc(C2CC(c3ccccc3F)=NN2c2ccc(S(N)(=O)=O)cc2)cc1 (stereo unspecified) [UNM-0000306110] | > 30 µM |
| CN(C)c1ccc(C2CC(c3ccccc3)=NN2c2ccccc2)cc1 (stereo unspecified) [4-(2,5-diphenyl-3,4-dihydropyrazol-3-yl)-N,N-dimethylaniline] | > 30 µM |
| COc1ccc(C2C[C-](c3ccccc3)N=[N+]2c2ccc([N+](=O)[O-])cc2)cc1 (stereo unspecified) [3-(4-methoxyphenyl)-2-(4-nitrophenyl)-5-phenyl-3,4-dihydropyrazole] | > 30 µM |
| Cc1ccccc1[N+]1=N[C-](c2ccccc2)CC1c1cccc([N+](=O)[O-])c1 (stereo unspecified) [UNM-0000305854] | > 30 µM |
| COc1ccc(C2CC(c3cccc(F)c3)=NN2c2ccc(S(N)(=O)=O)cc2)cc1 (stereo unspecified) [4-[5-(3-fluorophenyl)-3-(4-methoxyphenyl)-3,4-dihydropyrazol-2-yl]benzenesulfonamide] | > 30 µM |
| COc1ccc(C2CC(c3cccs3)=NN2c2ccc(S(N)(=O)=O)cc2)cc1 (stereo unspecified) [KUC103438N] | > 30 µM |
| O=S(=O)(c1ccc(N2N=C(c3ccc(Br)cc3)CC2c2ccccc2)cc1)C(F)F (stereo unspecified) [5-(4-bromophenyl)-2-[4-(difluoromethylsulfonyl)phenyl]-3-phenyl-3,4-dihydropyrazole] | > 30 µM |
| COc1ccc(C2CC(c3ccccc3)=NN2c2ccc(C(=O)O)cc2)cc1 (stereo unspecified) [UNM-0000306085] | > 30 µM |
| NS(=O)(=O)c1ccc(N2N=C(c3ccccc3)CC2c2ccc(Br)cc2)cc1 (stereo unspecified) [UNM-0000306160] | > 30 µM |
| NS(=O)(=O)c1ccc(N2N=C(c3ccccc3)CC2c2ccccc2)cc1 (stereo unspecified) [4-(3,5-diphenyl-3,4-dihydropyrazol-2-yl)benzenesulfonamide] | > 30 µM |
| COc1ccccc1C1CC(c2ccccc2)=NN1c1ccccc1 (stereo unspecified) | > 30 µM |
| COc1ccc(C2CC(c3ccccc3)=NN2c2ccc(Cl)c(C(=O)O)c2)cc1OC (stereo unspecified) [2-chloro-5-[3-(3,4-dimethoxyphenyl)-5-phenyl-3,4-dihydropyrazol-2-yl]benzoic acid] | > 30 µM |
| COc1ccc(C2CC(c3ccccc3)=NN2c2ccc(C(N)=O)cc2)cc1 (stereo unspecified) [UNM-0000305870] | > 30 µM |
| COc1ccc(C2CC(c3ccncc3)=NN2c2ccc(S(N)(=O)=O)cc2)cc1 (stereo unspecified) | > 30 µM |
| Cc1ccccc1N1N=C(c2ccccc2)CC1c1ccc(N(C)C)cc1 (stereo unspecified) [N,N-dimethyl-4-[2-(2-methylphenyl)-5-phenyl-3,4-dihydropyrazol-3-yl]aniline] | > 30 µM |
| COc1ccc(C2CC(c3ccc(F)cc3)=NN2c2ccccc2)cc1OC (stereo unspecified) [UNM-0000305864] | > 30 µM |
| Cc1cccc(C2CC(c3ccccc3)=NN2c2ccc(S(N)(=O)=O)cc2)c1 (stereo unspecified) | > 30 µM |
| NS(=O)(=O)c1ccc(N2N=C(c3ccccc3)CC2c2ccccc2Cl)cc1 (stereo unspecified) [KUC103446N] | > 30 µM |
| CN(C)c1ccc(C2C[C-](c3ccccc3)N=[N+]2c2ccc([N+](=O)[O-])cc2)cc1 (stereo unspecified) | > 30 µM |

| SMILES | EC50 |
| --- | --- |
| COc1ccc(C2CC(c3cccc(Br)c3)=NN2c2ccc(S(N)(=O)=O)cc2)cc1 (stereo unspecified) [UNM-0000306113] | > 30 µM |
| COc1ccc(C2CC(c3cccc(C(F)(F)F)c3)=NN2c2ccc(S(N)(=O)=O)cc2)cc1 (stereo unspecified) | > 30 µM |
| COc1ccc(C2CC(c3cccnc3)=NN2c2ccc(S(N)(=O)=O)cc2)cc1 (stereo unspecified) | > 30 µM |
| COc1ccc(C2CC(c3ccccc3)=NN2c2ccc(S(N)(=O)=O)cc2)cc1OC (stereo unspecified) [UNM-0000305823] | > 30 µM |
| FC(F)(F)c1ccccc1C1CC(c2ccc(Br)cc2)=NN1c1ccccc1 (stereo unspecified) [5-(4-bromophenyl)-2-phenyl-3-[2-(trifluoromethyl)phenyl]-3,4-dihydropyrazole] | > 30 µM |
| O=[N+]([O-])c1ccc([N+]2=N[C-](c3ccccc3)CC2c2ccc(O)cc2)cc1 (stereo unspecified) [UNM-0000305838] | > 30 µM |
| COc1ccc(C2CC(c3cccc(C)c3)=NN2c2ccc(S(N)(=O)=O)cc2)cc1 (stereo unspecified) [UNM-0000306153] | > 30 µM |
| CN(C)c1ccc(C2CC(c3ccc(Br)cc3)=NN2c2ccccc2)cc1 (stereo unspecified) [UNM-0000305846] | > 30 µM |
| COc1ccc(C2CC(C(C)(C)C)=NN2c2ccc(S(N)(=O)=O)cc2)cc1 (stereo unspecified) [KUC103450N] | > 30 µM |
| COc1ccc(C2CC(c3ccc(C(F)(F)F)cc3)=NN2c2ccc(S(N)(=O)=O)cc2)cc1 (stereo unspecified) [4-[3-(4-methoxyphenyl)-5-[4-(trifluoromethyl)phenyl]-3,4-dihydropyrazol-2-yl]benzenesulfonamide] | > 30 µM |
| COc1ccc(C2CC(c3ccccc3OC)=NN2c2ccc(S(N)(=O)=O)cc2)cc1 (stereo unspecified) | > 30 µM |
| Cc1cccc(N2N=C(c3ccccc3)CC2c2ccccc2)c1 (stereo unspecified) [UNM-0000305835] | > 30 µM |
| CCc1ccc(C2=NN(c3ccc(S(N)(=O)=O)cc3)C(c3ccc(F)cc3)C2)cc1 (stereo unspecified) | > 30 µM |
| O=[N+]([O-])c1cccc(C2C[C-](c3ccc(F)cc3)N=[N+]2c2ccccc2)c1 (stereo unspecified) [5-(4-fluorophenyl)-3-(3-nitrophenyl)-2-phenyl-3,4-dihydropyrazole] | > 30 µM |
| O=[N+]([O-])c1cccc(C2C[C-](c3ccccc3)N=[N+]2c2ccccc2)c1 (stereo unspecified) [UNM-0000305857] | > 30 µM |
| COc1ccc(C2CC(C3CCCCC3)=NN2c2ccc(S(N)(=O)=O)cc2)cc1 (stereo unspecified) [4-[5-cyclohexyl-3-(4-methoxyphenyl)-3,4-dihydropyrazol-2-yl]benzenesulfonamide] | > 30 µM |
| COc1ccc(C2CC(c3ccc(F)cc3)=NN2c2ccc(S(N)(=O)=O)cc2)cc1 (stereo unspecified) [4-[5-(4-fluorophenyl)-3-(4-methoxyphenyl)-3,4-dihydropyrazol-2-yl]benzenesulfonamide] | > 30 µM |
| COc1ccc(C2=NN(c3ccccc3)C(c3ccccc3C(F)(F)F)C2)cc1 (stereo unspecified) | > 30 µM |
| Cc1ccc(C2CC(c3ccccc3)=NN2c2ccc(S(N)(=O)=O)cc2)cc1 (stereo unspecified) | > 30 µM |

same assay, conditions: inactive by the depositor's call

| SMILES | EC50 |
| --- | --- |
| COc1ccc(C2CC(c3cccc(Cl)c3)=NN2c2ccc(S(N)(=O)=O)cc2)cc1 (stereo unspecified) [UNM-0000306134] | 0.141 µM |
| O=S(=O)(c1ccc(N2N=C(c3ccccc3)CC2c2ccccc2)cc1)C(F)F (stereo unspecified) | 0.508 µM |

— BindingDB's records for doi:10.7270/Q2MK6B9H (Nmmlsc, 2009)
